We go through 1 molecule from publication PMC5938390, “Tachyplesin Causes Membrane Instability That Kills Multidrug-Resistant Bacteria by Inhibiting the 3-Ketoacyl Carrier Protein Reductase FabG” (Frontiers in Microbiology, 2018).

One assay concerns P. aeruginosa 1409. In words: MIC against MDR clinical isolate. Type of assay: cell-based, Pseudomonas aeruginosa. The settings on record: P. aeruginosa 1409.
Assay [1] relates to P. aeruginosa strain 1409. In words: Membrane rupture by propidium iodide staining. It counts as cell-based, Pseudomonas aeruginosa. As to conditions: LB medium, 25°C, 1 h, then PI 10 μg/ml 30 min. The procedure:
These studies were carried out as we previously reported with slight modifications and briefly introduced as follows ([Liu et al., 2017]). […] Cytotoxicity in different cell lines was assessed using the Cell Proliferation Kit II (XTT) (Roche), and cytotoxicity in hemocytes was evaluated by the increase in the absorbance at 540 nm after peptide incubation. Membrane rupture was indicated by the entrance of the DNA-binding fluorescent dye PI into MDR clinical isolates of P. aeruginosa strain 1409. Membrane translocation of N-terminal FITC-conjugated tachyplesin III (purity ≥ 95%, synthesized by GL Biochem Co., Ltd, Shanghai, China) into MDR clinical isolates of Acinetobacter baumannii strain 1408 were detected by confocal laser-scanning microscopy.
After centrifugation at 3000 g for 10 min, cells were resuspended in the same volume of PBS (phosphate-buffered saline, 8 g/L NaCl, 0.2 g/L KCl, 1.44 g/L Na2HPO4, 0.24 g/L KH2PO4, pH 7.4). Then, PI was added to a final concentration of 10 μg/ml. After 30 min of incubation at 25°C, the cells were washed three times with PBS and immediately imaged with a fluorescence microscope.

A further assay deals with FabG gene. Put plainly: FabG transcription level by quantitative real-time PCR. It counts as cell-based, A. baumannii, E. coli, K. pneumoniae, P. aeruginosa. The settings on record: all four bacteria, RNAs from transcriptome analysis (16 μg/ml, 30 min), 2^-ΔΔCT, rpsL reference. As for the experimental part:
Quantitative real-time PCR (RT-PCR) was performed following the 2^-ΔΔCT method with RNAs from the aforementioned transcriptome analysis ([Livak and Schmittgen, 2001]; [Liu C. et al., 2014]). Untreated pathogen strains were used as the calibrator strains, and corresponding ribosomal rpsL genes were used as housekeeping reference genes with the primers shown in Supplementary Table S1 ([Dumas et al., 2006]).
FIGURE 5 Expression of FabG increased after tachyplesin treatment. Quantitative real-time PCR was performed following the 2^-ΔΔCT method. Untreated pathogen strains were used as the calibrator strains, and the corresponding ribosomal rpsL genes were used as housekeeping reference gene with the primers shown in Supplementary Table S1.
(Quantitative PCR measures a nucleic acid by following its amplification.)

In a further assay the target is T1, FabG from S. aureus (Staphylococcus aureus, UniProt P0A0H9).
T1 construct: His tag (C); made in house; host or cells: E. coli BL21 DE3 (vector pET28a)
T1 sequence (P0A0H9 1-246): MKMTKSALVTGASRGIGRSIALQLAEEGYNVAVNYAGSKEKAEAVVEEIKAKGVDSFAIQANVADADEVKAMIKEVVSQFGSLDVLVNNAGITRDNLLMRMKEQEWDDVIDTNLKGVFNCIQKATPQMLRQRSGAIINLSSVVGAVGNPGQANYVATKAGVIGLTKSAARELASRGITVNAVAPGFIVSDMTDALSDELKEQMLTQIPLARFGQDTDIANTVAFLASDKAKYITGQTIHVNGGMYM
Put plainly: FabG enzyme activity inhibition assay (NADPH consumption, A340). The settings on record: higher concentrations (7.5 and 15 μM) of peptide, 6 μM FabG, 5 min, room temperature. Type of assay: biochemical. As for the experimental part:
A 96-well plate with a final total volume of 200 μl per reaction was used for the FabG inhibition assay. Briefly, tachyplesin III (15, 7.5, and 3.75 μM) was incubated with 1.5 μM FabG from E. coli or 6 μM FabG from S. aureus at room temperature for 5 min, before the addition of 300 μM nicotinamide adenine dinucleotide phosphate (NADPH, Sigma) and then 150 μM acetoacetyl-CoA (Sigma) to initiate the reaction. The decrease in absorbance at 340 nm was recorded over 5 min to reflect the consumption of NADPH.
FIGURE 7 Tachyplesin III binding with FabG inhibits its enzyme activities in vitro, probably by blocking the active site. Binding interactions between tachyplesin III and FabG from E. coli (A) or from S. aureus (E) were analyzed by surface plasmon resonance (SPR) with a Biocore 3000 (Biocore, Piscataway, NJ, United States). Black line: 1.25 μg/mL FabG; green line: 2.5 μg/mL FabG; purple line: 5 μg/mL FabG; and red line: 10 μg/mL FabG. […] Tachyplesin was processed with Chemdraw 11.0 according to the structure of tachyplesin I (PDB code 2RTV) and then docked to the active site of FabG from E. coli (PDB code 1Q7B) or S. aureus (PDB code 3SJ7) with AutoDock4 using the default settings. […] Statistical significance was analyzed by one-way ANOVA followed by the Newman–Keuls multiple-comparisons test, ^∗∗p < 0.01, ^∗p < 0.05.

Positions of bridges follow the written chain, without caps; N, C: chain ends. Residues, ends and D or L forms follow the SMILES beside them.

`CC[C@H](C)[C@@H]1NC(=O)CNC(=O)[C@H](CCCNC(=N)N)NC(=O)[C@H](Cc2ccc(O)cc2)NC(=O)[C@@H]2CSSC[C@H](NC1=O)C(=O)N[C@@H](Cc1ccc(O)cc1)C(=O)N[C@@H](CCCNC(=N)N)C(=O)N[C@@H](CCCCN)C(=O)N[C@H](C(=O)N[C@@H](CCCNC(=N)N)C(N)=O)CSSC[C@H](NC(=O)[C@H](Cc1c[nH]c3ccccc13)NC(=O)[C@@H](N)CCCCN)C(=O)N[C@@H](Cc1ccccc1)C(=O)N[C@@H](CCCNC(=N)N)C(=O)N[C@@H](C(C)C)C(=O)N2` [tachyplesin III] (H-KWCFRVCYRGICYRKCR-NH2; disulfide 3-16, 7-12 (inferred); N-terminus and C-terminus assumed): the “16 μg/ml tachyplesin III expressed as multiple of MIC” value in the assay on P. aeruginosa 1409 worked out at 2 × MIC. The “membrane integrity (PI fluorescence)” value in assay [1] (1/4× MIC) is recorded as “slight membrane breakage in a small proportion of the treated bacteria”; in assay [1] (4× MIC (high concentration)) it was “complete membrane breakage of nearly all of the treated bacteria”. Moreover, the “FabG expression by quantitative real-time PCR” value with FabG gene was “elevations”. Moreover, the FabG activity result at FabG from S. aureus is “almost completely blocked”.
